The results in this text go back to ChEMBL document CHEMBL3045569, “Synthesis of allyl esters of fatty acids and their ovicidal effect on Cydia pomonella (L.)” (2009).

The term mortality denotes the percentage killed. As a reminder, the LC50 is the concentration that kills 50% of the test population.

Values after ≈ are worked out from the molar mass of the structure shown. Active and inactive are the calls of the source. The calls are words filed in the database; no cut-off is given here.

The subject of one test is Cydia pomonella. The test can be described thus: Ovicidal activity against <24 hr-old Cydia pomonella (codling moth) eggs assessed as corrected mortality at 10 mg/ml applied as 0.1 ul drop solution topically measured for 3 days. The settings on record: topical, 72 h. The class given is functional.
For the compound `C=CCOC(=O)CCCCCCCCCCCCCCCCC` [ALLYL OCTADECANOATE], the mortality at 10000 µg/mL stood at 100%.

For the compound `C=CCOC(=O)CCCCCCC` [ALLYL OCTANOATE], the mortality at 10000 µg/mL was 100%.

In the case of `C=CCOC(=O)CCCCCCCCCCCCC` [ALLYL TETRADECANOATE], the mortality at 10000 µg/mL was determined as 100%.

For the compound `C=CCOC(=O)CCCCCCCCCCCCCCC` [HEXADECANOIC ACID ALLYL ESTER], the mortality at 10000 µg/mL amounted to 100%.

The next test relates to Cydia pomonella. The test can be described thus: Ovicidal activity against <24 hr-old Cydia pomonella (codling moth) eggs assessed as mortality at the stage of white head development at 10 mg/ml applied as 0.1 ul drop solution topically measured for 3 days (acetone Rvb = 1.1 +/-0.44%). The format is functional. The settings on record: topical, 72 h.
With `C=CCOC(=O)CCCCCCCCCCCCCCCCC` [ALLYL OCTADECANOATE], the mortality at 10000 µg/mL was 43.3%.

Consider `C=CCOC(=O)CCCCCCC` [ALLYL OCTANOATE], for which the mortality at 10000 µg/mL amounted to 80%.

Take `C=CCOC(=O)CCCCCCCCCCCCC` [ALLYL TETRADECANOATE]: the mortality at 10000 µg/mL was determined as 54.4%.

As for `C=CCOC(=O)CCCCCCCCCCCCCCC` [HEXADECANOIC ACID ALLYL ESTER], the mortality at 10000 µg/mL was determined as 28.9%.

The test system of a further test is Cydia pomonella. The test can be described thus: Ovicidal activity against <24 hr-old Cydia pomonella (codling moth) eggs assessed as mortality at the stage of red ring development at 10 mg/ml applied as 0.1 ul drop solution topically measured for 3 days (acetone Rvb = 4.4 +/-0.22%). The format is functional. The settings on record: topical, 72 h.
In the case of `C=CCOC(=O)CCCCCCCCCCCCCCCCC` [ALLYL OCTADECANOATE], the mortality at 10000 µg/mL is 13.3%.

Turning to `C=CCOC(=O)CCCCCCC` [ALLYL OCTANOATE], the mortality at 10000 µg/mL was 13.3%.

Take `C=CCOC(=O)CCCCCCCCCCCCC` [ALLYL TETRADECANOATE]: the mortality at 10000 µg/mL worked out at 17.8%.

With `C=CCOC(=O)CCCCCCCCCCCCCCC` [HEXADECANOIC ACID ALLYL ESTER], the mortality at 10000 µg/mL stood at 24.4%.

The next test deals with Cydia pomonella. The test can be described thus: Ovicidal activity against <24 hr-old Cydia pomonella (codling moth) eggs assessed as increase in duration of the development of eggs applied as 0.1 ul drop solution topically measured for 3 days. The class given is functional, organism-based.
Settings: not given
Consider `C=CCOC(=O)CCCCCCCCCCCCCCCCC` [ALLYL OCTADECANOATE], for which the outcome was Active.

On to `C=CCOC(=O)CCCCCCC` [ALLYL OCTANOATE], for which the outcome was Active.

Consider `C=CCOC(=O)CCCCCCCCCCCCC` [ALLYL TETRADECANOATE], for which the outcome was Active.

Regarding `C=CCOC(=O)CCCCCCCCCCCCCCC` [HEXADECANOIC ACID ALLYL ESTER], the result was Active.

Another test has as its system Cydia pomonella. The test can be described thus: Ovicidal activity against <24 hr-old Cydia pomonella (codling moth) eggs assessed as corrected mortality at 1 mg/ml applied as 0.1 ul drop solution topically measured for 3 days. The class given is functional. The settings on record: topical, 72 h.
As for `C=CCOC(=O)CCCCCCCCCCCCCCCCC` [ALLYL OCTADECANOATE], the mortality at 1000 µg/mL was 17.3%.

Turning to `C=CCOC(=O)CCCCCCC` [ALLYL OCTANOATE], the mortality at 1000 µg/mL was found to be 59.2%.

As for `C=CCOC(=O)CCCCCCCCCCCCC` [ALLYL TETRADECANOATE], the mortality at 1000 µg/mL was 19.8%.

As to `C=CCOC(=O)CCCCCCCCCCCCCCC` [HEXADECANOIC ACID ALLYL ESTER], the mortality at 1000 µg/mL amounted to 6%.

Another test deals with Cydia pomonella. The test can be described thus: Ovicidal activity against <24 hr-old Cydia pomonella (codling moth) eggs assessed as corrected mortality at 5 mg/ml applied as 0.1 ul drop solution topically measured for 3 days. The format is functional. As to conditions: topical, 72 h.
On to `C=CCOC(=O)CCCCCCCCCCCCCCCCC` [ALLYL OCTADECANOATE], for which the mortality at 5000 µg/mL worked out at 82.2%.

Turning to `C=CCOC(=O)CCCCCCC` [ALLYL OCTANOATE], the mortality at 5000 µg/mL was found to be 97.7%.

For the compound `C=CCOC(=O)CCCCCCCCCCCCC` [ALLYL TETRADECANOATE], the mortality at 5000 µg/mL was 97.2%.

Consider `C=CCOC(=O)CCCCCCCCCCCCCCC` [HEXADECANOIC ACID ALLYL ESTER], for which the mortality at 5000 µg/mL was found to be 72.2%.

Another test deals with Cydia pomonella. The test can be described thus: Ovicidal activity against <24 hr-old Cydia pomonella (codling moth) eggs assessed as corrected mortality at 2.5 mg/ml applied as 0.1 ul drop solution topically measured for 3 days. The class given is functional. As to conditions: topical, 72 h.
As for `C=CCOC(=O)CCCCCCCCCCCCCCCCC` [ALLYL OCTADECANOATE], the mortality at 2500 µg/mL came out at 41.6%.

For `C=CCOC(=O)CCCCCCC` [ALLYL OCTANOATE], the mortality at 2500 µg/mL is 95.9%.

With `C=CCOC(=O)CCCCCCCCCCCCC` [ALLYL TETRADECANOATE], the mortality at 2500 µg/mL is 87.5%.

As for `C=CCOC(=O)CCCCCCCCCCCCCCC` [HEXADECANOIC ACID ALLYL ESTER], the mortality at 2500 µg/mL was 66.6%.

A further test deals with Cydia pomonella. The test can be described thus: Ovicidal activity against <24 hr-old Cydia pomonella (codling moth) eggs assessed as corrected mortality at 0.1 mg/ml applied as 0.1 ul drop solution topically measured for 3 days. The class given is functional. As to conditions: topical, 72 h.
For `C=CCOC(=O)CCCCCCCCCCCCCCCCC` [ALLYL OCTADECANOATE], the mortality at 100 µg/mL worked out at 0%.

For `C=CCOC(=O)CCCCCCC` [ALLYL OCTANOATE], the mortality at 100 µg/mL amounted to 9.7%.

In the case of `C=CCOC(=O)CCCCCCCCCCCCC` [ALLYL TETRADECANOATE], the mortality at 100 µg/mL was 4.6%.

Regarding `C=CCOC(=O)CCCCCCCCCCCCCCC` [HEXADECANOIC ACID ALLYL ESTER], the mortality at 100 µg/mL came out at 0%.

Another test relates to Cydia pomonella. The test can be described thus: Ovicidal activity against <24 hr-old Cydia pomonella (codling moth) eggs assessed as mortality at the stage of black head development at 10 mg/ml applied as 0.1 ul drop solution topically measured for 3 days (acetone Rvb = 94.4 +/-0.1%). The format is functional. As to conditions: topical, 72 h.
Regarding `C=CCOC(=O)CCCCCCCCCCCCCCCCC` [ALLYL OCTADECANOATE], the mortality at 10000 µg/mL turned out to be 43.3%.

Take `C=CCOC(=O)CCCCCCC` [ALLYL OCTANOATE]: the mortality at 10000 µg/mL was 6.7%.

`C=CCOC(=O)CCCCCCCCCCCCC` [ALLYL TETRADECANOATE]: the mortality at 10000 µg/mL was 27.8%.

Turning to `C=CCOC(=O)CCCCCCCCCCCCCCC` [HEXADECANOIC ACID ALLYL ESTER], the mortality at 10000 µg/mL came out at 46.7%.

For another test, the system named is Cydia pomonella. The test can be described thus: Ovicidal activity against <24 hr-old Cydia pomonella (codling moth) eggs assessed as corrected mortality at 7.5 mg/ml applied as 0.1 ul drop solution topically measured for 3 days. The format is functional. The settings on record: topical, 72 h.
As for `C=CCOC(=O)CCCCCCCCCCCCCCCCC` [ALLYL OCTADECANOATE], the mortality at 7500 µg/mL came out at 87.2%.

Consider `C=CCOC(=O)CCCCCCC` [ALLYL OCTANOATE], for which the mortality at 7500 µg/mL was found to be 98.8%.

As to `C=CCOC(=O)CCCCCCCCCCCCC` [ALLYL TETRADECANOATE], the mortality at 7500 µg/mL turned out to be 97.7%.

In the case of `C=CCOC(=O)CCCCCCCCCCCCCCC` [HEXADECANOIC ACID ALLYL ESTER], the mortality at 7500 µg/mL came out at 87.2%.

The next test deals with Cydia pomonella. The test can be described thus: Ovicidal activity against <24 hr-old Cydia pomonella (codling moth) eggs assessed as mortality applied as 0.1 ul drop solution topically measured for 3 days. The class given is functional.
Settings: not given
Regarding `C=CCOC(=O)CCCCCCCCCCCCCCCCC` [ALLYL OCTADECANOATE], the LC90 came out at 7.33 mg/mL (≈ 22.6 mM).

`C=CCOC(=O)CCCCCCC` [ALLYL OCTANOATE]: the LC90 worked out at 2.18 mg/mL (≈ 11.8 mM).

Turning to `C=CCOC(=O)CCCCCCCCCCCCC` [ALLYL TETRADECANOATE], the LC90 is 3.24 mg/mL (≈ 12.1 mM).

Regarding `C=CCOC(=O)CCCCCCCCCCCCCCC` [HEXADECANOIC ACID ALLYL ESTER], the LC90 stood at 7.97 mg/mL (≈ 26.9 mM).

The test is the same for the next values; noted with them: Cydia pomonella, topical, 72 h.
As to `C=CCOC(=O)CCCCCCCCCCCCCCCCC` [ALLYL OCTADECANOATE], the LC50 came out at 2690 µg/mL (≈ 8.29 mM).

For `C=CCOC(=O)CCCCCCC` [ALLYL OCTANOATE], the LC50 came to 710 µg/mL (≈ 3.85 mM).

Turning to `C=CCOC(=O)CCCCCCCCCCCCC` [ALLYL TETRADECANOATE], the LC50 turned out to be 1410 µg/mL (≈ 5.25 mM).

For `C=CCOC(=O)CCCCCCCCCCCCCCC` [HEXADECANOIC ACID ALLYL ESTER], the LC50 turned out to be 2460 µg/mL (≈ 8.3 mM).

In another test the test system is Cydia pomonella. The test can be described thus: Ovicidal activity against <24 hr-old Cydia pomonella (codling moth) eggs assessed as corrected mortality at 0.5 mg/ml applied as 0.1 ul drop solution topically measured for 3 days. The class given is functional. As to conditions: topical, 72 h.
Turning to `C=CCOC(=O)CCCCCCCCCCCCCCCCC` [ALLYL OCTADECANOATE], the mortality at 500 µg/mL came out at 11.9%.

Consider `C=CCOC(=O)CCCCCCC` [ALLYL OCTANOATE], for which the mortality at 500 µg/mL came to 29.9%.

In the case of `C=CCOC(=O)CCCCCCCCCCCCC` [ALLYL TETRADECANOATE], the mortality at 500 µg/mL is 7.5%.

With `C=CCOC(=O)CCCCCCCCCCCCCCC` [HEXADECANOIC ACID ALLYL ESTER], the mortality at 500 µg/mL came to 0%.

As for `CCOC(=O)NCCOc1ccc(Oc2ccccc2)cc1` [PHENOXYCARB], the mortality at 500 µg/mL was 100%.

The next test deals with Cydia pomonella. The test can be described thus: Ovicidal activity against <24 hr-old Cydia pomonella (codling moth) eggs assessed as corrected mortality at 1.75 mg/ml applied as 0.1 ul drop solution topically measured for 3 days. The format is functional. The settings on record: topical, 72 h.
For the compound `C=CCOC(=O)CCCCCCCCCCCCCCCCC` [ALLYL OCTADECANOATE], the mortality at 1750 µg/mL worked out at 32.1%.

As to `C=CCOC(=O)CCCCCCC` [ALLYL OCTANOATE], the mortality at 1750 µg/mL was determined as 83.8%.

In the case of `C=CCOC(=O)CCCCCCCCCCCCC` [ALLYL TETRADECANOATE], the mortality at 1750 µg/mL came to 49.5%.

For the compound `C=CCOC(=O)CCCCCCCCCCCCCCC` [HEXADECANOIC ACID ALLYL ESTER], the mortality at 1750 µg/mL was determined as 32.6%.
